Reference: patent publication US8722849B2, “Polypeptides” (Novo Nordisk A/S, priority 2011, dated 2014)
≈ marks a conversion by molar mass, not a printed value. Where two headings read alike, the source gives them in different places. Starred links: 1 amine or outer side, 2 acyl side, 3 side chain; linkers in the order of their positions; H or OH if unused. Positions of bridges follow the written chain, without caps; N, C: chain ends. Residues, ends and D or L forms follow the SMILES beside them. *: point of attachment. C20 diacid = O=C(O)CCCCCCCCCCCCCCCCCCC(=O)*; γGlu = O=C(O)[C@H](CCC(=O)[*:2])N[*:1]

Key:
[1] = Assay (IV) determination of solubility; type: physicochemical
Procedure, shortened: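 Polypeptide in water (~500 nmol/ml) mixed 1:1 with 100 mM glycylglycine (pH 3.0–5.0) or bistrispropane (pH 6.0–8.0) buffers. Held 18 hours at room temperature, then centrifuged. Polypeptide remaining in solution quantified by HPLC.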

[2] = Assay (III) ThT fibrillation assay for physical stability; type: physicochemical
Procedure, shortened: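 Freshly prepared formulations, pH-adjusted, with 1 μM ThT; four or eight replicates incubated at 37 °C under 960 rpm orbital shaking. Fluorescence (ex 444/em 485 nm) read every 20 min; […]. Peptide concentration measured by RP-HPLC before and after the run.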

[3] = target: T1, human calcitonin receptor (Homo sapiens, UniProt P30988); test: Assay (II)a functional CRE-luciferase assay, human calcitonin receptor; type: cell-based; details: Table 7; human calcitonin (CTa) receptor
T1 construct: expressed in transfected cells; host or cells: BHK570
T1 sequence (P30988 25-474): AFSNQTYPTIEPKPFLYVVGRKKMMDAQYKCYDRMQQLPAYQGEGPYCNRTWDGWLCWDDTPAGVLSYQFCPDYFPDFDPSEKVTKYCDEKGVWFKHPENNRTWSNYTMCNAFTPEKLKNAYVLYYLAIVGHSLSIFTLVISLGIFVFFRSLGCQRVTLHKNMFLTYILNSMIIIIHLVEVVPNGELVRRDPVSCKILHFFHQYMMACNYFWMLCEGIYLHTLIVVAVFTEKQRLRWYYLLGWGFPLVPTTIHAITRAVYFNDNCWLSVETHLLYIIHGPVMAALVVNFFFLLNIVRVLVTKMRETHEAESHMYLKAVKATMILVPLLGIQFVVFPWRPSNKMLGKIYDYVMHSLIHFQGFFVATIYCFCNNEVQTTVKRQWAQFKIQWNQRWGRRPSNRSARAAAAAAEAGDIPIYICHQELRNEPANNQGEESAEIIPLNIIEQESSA

[4] = target: T2, human amylin receptor (amylin 3(a) receptor: human calcitonin receptor + RAMP-3) (Homo sapiens, UniProt O60896+P30988); test: Assay (II)a functional CRE-luciferase assay, human amylin receptor; type: cell-based; details: Table 2; BHK amylin 3(a)-receptor/CRE-luc cells
T2 construct: expressed in transfected cells; host or cells: BHK570
T2 sequence (P30988 25-474): T1 sequence (P30988 25-474)
T2 sequence (O60896 24-148 partner): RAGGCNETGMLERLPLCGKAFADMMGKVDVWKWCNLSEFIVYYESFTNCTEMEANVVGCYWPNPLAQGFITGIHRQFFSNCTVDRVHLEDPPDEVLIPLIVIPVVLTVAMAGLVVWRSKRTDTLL

[5] = bistrispropane buffer, pH 6, pH 6.0, read-out: Solubility pH 6.0
[6] = bistrispropane buffer, pH 6.5, pH 6.5, read-out: Solubility pH 6.5
[7] = bistrispropane buffer, pH 7, pH 7.0, 18 hours at room temperature, Table 3, read-out: Solubility pH 7.0
[8] = bistrispropane buffer, pH 7, pH 7.0, read-out: Solubility pH 7.0
[9] = bistrispropane buffer, pH 7.5, pH 7.5, read-out: Solubility pH 7.5
[10] = bistrispropane buffer, pH 8, pH 8.0, read-out: Solubility pH 8.0
[11] = glycylglycine buffer, pH 3, pH 3.0, read-out: Solubility pH 3.0
[12] = glycylglycine buffer, pH 4, pH 4.0, 18 hours at room temperature, Table 2, read-out: Solubility pH 4.0
[13] = glycylglycine buffer, pH 4, pH 4.0, read-out: Solubility pH 4.0
[14] = glycylglycine buffer, pH 5, pH 5.0, read-out: Solubility pH 5.0

solubility at 18 h [1, 5] [µM]	solubility at 18 h [1, 6] [µM]	solubility at 18 h [1, 7] [µM]	solubility at 18 h ([1]; bistrispropane buffer, pH 7, pH 7.0, Table 8, read-out: Solubility pH 7.0) [µM]	solubility at 18 h ([1]; bistrispropane buffer, pH 7, pH 7.0, Table 9, read-out: Solubility pH 7.0) [µM]	solubility at 18 h [1, 8] [µM]	solubility at 18 h ([1]; bistrispropane buffer, pH 7.5, pH 7.5, Table 9, read-out: Solubility pH 7.5) [µM]	solubility at 18 h [1, 9] [µM]	solubility at 18 h [1, 10] [µM]	solubility at 18 h [1, 11] [µM]	solubility at 18 h [1, 12] [µM]	solubility at 18 h [1, 13] [µM]	solubility at 18 h [1, 14] [µM]	ThT pH 4.0 lag time ([2]; Table 8) [h]	ThT pH 4.0 lag time ([2]; Table 9) [h]	ThT pH 4.0 lag time ([2]; ThT fibrillation assay) [h]	ThT pH 4.0 lag time (h) ([2]; ThT fibrillation assay)	EC50 [3] [pM]	EC50 [4] [pM]	SMILES
> 200	> 200	> 200	> 200	> 200	> 200	188 (≈ 840 µg/mL)	188 (≈ 840 µg/mL)	124 (≈ 554 µg/mL)	> 200	> 200	> 200	> 200	>45	>45	>45	>45	130	134	CC[C@H](C)[C@H](NC(=O)[C@@H]1CCCN1C(=O)CNC(=O)[C@H](Cc1ccccc1)NC(=O)[C@H](CC(N)=O)NC(=O)[C@H](CC(N)=O)NC(=O)[C@H](CO)NC(=O)[C@H](CO)NC(=O)[C@H](Cc1c[nH]cn1)NC(=O)[C@H](Cc1c[nH]cn1)NC(=O)[C@H](CC(C)C)NC(=O)[C@H](Cc1ccccc1)NC(=O)[C@H](CCC(=O)O)NC(=O)[C@H](C)NC(=O)[C@H](CC(C)C)NC(=O)[C@H](CCCNC(=N)N)NC(=O)[C@H](CCC(N)=O)NC(=O)[C@@H](NC(=O)[C@H](C)NC(=O)[C@@H]1CSSC[C@H](NC(=O)[C@H](CCCCN)NC(=O)CC[C@H](NC(=O)CCCCCCCCCCCCCCCCCCC(=O)O)C(=O)O)C(=O)N[C@@H](CC(N)=O)C(=O)N[C@@H]([C@@H](C)O)C(=O)N[C@@H](C)C(=O)N[C@@H]([C@@H](C)O)C(=O)N1)[C@@H](C)O)C(=O)N[C@@H](CC(C)C)C(=O)N1CCC[C@H]1C(=O)N1CCC[C@H]1C(=O)N[C@H](C(=O)N[C@@H](CC(N)=O)C(=O)N[C@H](C(=O)NCC(=O)N[C@@H](CO)C(=O)N[C@@H](CCCCN)C(=O)N[C@H](C(=O)N[C@@H](Cc1ccc(O)cc1)C(N)=O)[C@@H](C)O)C(C)C)[C@@H](C)O [Example 113, N-alpha-[(S)-4-Carboxy-4-(19-carboxynonadecanoylamino)butyryl]-[Glu14,His17,Lys35]-pramlintide] ({C20 diacid-γGlu}-KCNTATCATQRLAEFLHHSSNNFGPILPPTNVGSKTY-NH2; disulfide 2-7 (inferred))
75 (≈ 329 µg/mL)	122 (≈ 534 µg/mL)	165 (≈ 723 µg/mL)			165 (≈ 723 µg/mL)		> 200	> 200	> 200	> 200	> 200	> 200				6	22	41.5	CC[C@H](C)[C@H](NC(=O)[C@@H]1CCCN1C(=O)CNC(=O)[C@H](Cc1ccccc1)NC(=O)[C@H](CC(N)=O)NC(=O)[C@H](CC(N)=O)NC(=O)[C@H](CO)NC(=O)[C@H](CO)NC(=O)[C@H](CCCNC(=N)N)NC(=O)[C@@H](NC(=O)[C@H](CC(C)C)NC(=O)[C@H](Cc1ccccc1)NC(=O)[C@H](CCC(=O)O)NC(=O)[C@H](C)NC(=O)[C@H](CC(C)C)NC(=O)[C@H](CCCNC(=N)N)NC(=O)[C@H](CCC(N)=O)NC(=O)[C@@H](NC(=O)[C@H](C)NC(=O)[C@@H]1CSSC[C@H](NC(=O)[C@H](Cc2c[nH]cn2)NC(=O)CC[C@H](NC(=O)CCCCCCCCCCCCCCCCCCC(=O)O)C(=O)O)C(=O)N[C@@H](CC(N)=O)C(=O)N[C@@H]([C@@H](C)O)C(=O)N[C@@H](C)C(=O)N[C@@H]([C@@H](C)O)C(=O)N1)[C@@H](C)O)C(C)C)C(=O)N[C@@H](CC(C)C)C(=O)N1CCC[C@H]1C(=O)N1CCC[C@H]1C(=O)N[C@H](C(=O)N[C@@H](CC(N)=O)C(=O)N[C@H](C(=O)NCC(=O)N[C@@H](CO)C(=O)N[C@@H](CC(N)=O)C(=O)N[C@H](C(=O)N1CCC[C@H]1C(N)=O)[C@@H](C)O)C(C)C)[C@@H](C)O [Example 143, N-alpha-[(S)-4-Carboxy-4-(19-carboxynonadecanoylamino)butyryl]-[His1,Glu14,Arg18,Pro37]-pramlintide] ({C20 diacid-γGlu}-HCNTATCATQRLAEFLVRSSNNFGPILPPTNVGSNTP-NH2; disulfide 2-7 (inferred))
49 (≈ 217 µg/mL)	4 (≈ 17.8 µg/mL)				27 (≈ 120 µg/mL)		174 (≈ 772 µg/mL)	> 200	> 200	> 200	> 200	> 200				19	171	225	CC[C@H](C)[C@H](NC(=O)[C@@H]1CCCN1C(=O)CNC(=O)[C@H](Cc1ccccc1)NC(=O)[C@H](CC(N)=O)NC(=O)[C@H](CC(N)=O)NC(=O)[C@H](CO)NC(=O)[C@H](CO)NC(=O)[C@H](Cc1c[nH]cn1)NC(=O)[C@H](Cc1c[nH]cn1)NC(=O)[C@H](CC(C)C)NC(=O)[C@H](Cc1ccccc1)NC(=O)[C@H](CCC(=O)O)NC(=O)[C@H](C)NC(=O)[C@H](CC(C)C)NC(=O)[C@H](CCCNC(=N)N)NC(=O)[C@H](CCC(N)=O)NC(=O)[C@@H](NC(=O)[C@H](C)NC(=O)[C@@H]1CSSC[C@H](NC(=O)[C@H](CO)NC(=O)CC[C@H](NC(=O)CCCCCCCCCCCCCCCCCCC(=O)O)C(=O)O)C(=O)N[C@@H](CC(N)=O)C(=O)N[C@@H]([C@@H](C)O)C(=O)N[C@@H](C)C(=O)N[C@@H]([C@@H](C)O)C(=O)N1)[C@@H](C)O)C(=O)N[C@@H](CC(C)C)C(=O)N1CCC[C@H]1C(=O)N1CCC[C@H]1C(=O)N[C@H](C(=O)N[C@@H](CC(N)=O)C(=O)N[C@H](C(=O)NCC(=O)N[C@@H](CO)C(=O)N[C@@H](Cc1c[nH]cn1)C(=O)N[C@H](C(=O)N[C@@H](Cc1ccc(O)cc1)C(N)=O)[C@@H](C)O)C(C)C)[C@@H](C)O [Example 107, N-alpha-[(S)-4-Carboxy-4-(19-carboxynonadecanoylamino)butyryl]-[Ser1,Glu14,His17,His35]-pramlintide] ({C20 diacid-γGlu}-SCNTATCATQRLAEFLHHSSNNFGPILPPTNVGSHTY-NH2; disulfide 2-7)
> 200	> 200	> 200			> 200		> 200	> 200	> 200	> 200	> 200	> 200				19	443	288	CC[C@H](C)[C@H](NC(=O)[C@@H]1CCCN1C(=O)CNC(=O)[C@H](Cc1ccccc1)NC(=O)[C@H](CC(N)=O)NC(=O)[C@H](CC(N)=O)NC(=O)[C@H](CO)NC(=O)[C@H](CO)NC(=O)[C@H](Cc1c[nH]cn1)NC(=O)[C@H](Cc1c[nH]cn1)NC(=O)[C@H](CC(C)C)NC(=O)[C@H](Cc1ccccc1)NC(=O)[C@H](CCC(=O)O)NC(=O)[C@H](C)NC(=O)[C@H](CC(C)C)NC(=O)[C@H](CCCNC(=N)N)NC(=O)[C@H](CCC(N)=O)NC(=O)[C@@H](NC(=O)[C@H](C)NC(=O)[C@@H]1CSSC[C@H](NC(=O)[C@H](CCC(=O)O)NC(=O)[C@H](CCCNC(=N)N)NC(=O)[C@H](CCC(=O)O)NC(=O)[C@H](CCC(=O)O)NC(=O)CCCCCCCCCCCCCCCCCCC(=O)O)C(=O)N[C@@H](CC(N)=O)C(=O)N[C@@H]([C@@H](C)O)C(=O)N[C@@H](C)C(=O)N[C@@H]([C@@H](C)O)C(=O)N1)[C@@H](C)O)C(=O)N[C@@H](CC(C)C)C(=O)N1CCC[C@H]1C(=O)N1CCC[C@H]1C(=O)N[C@H](C(=O)N[C@@H](CC(N)=O)C(=O)N[C@H](C(=O)NCC(=O)N[C@@H](CO)C(=O)N[C@@H](CC(N)=O)C(=O)N[C@H](C(=O)N1CCC[C@H]1C(N)=O)[C@@H](C)O)C(C)C)[C@@H](C)O [Example 125, N-alpha-(19-carboxynonadecanoyl)-Glu-Glu-Arg-[Glu1,Glu14,His17,Pro37]-pramlintide] ({C20 diacid}-EERECNTATCATQRLAEFLHHSSNNFGPILPPTNVGSNTP-NH2; disulfide 5-10 (inferred); C-terminus assumed)
